Key:
Assay in all cases: KINOMEscan competition binding
Conditions in all cases: compound 10.0 µM
BRSK2 (human) = BRSK2 (human) (UniProt Q8IWQ3)
INSRR (human) = INSRR (human) (UniProt P14616)
PIP5K1A (human) = PIP5K1A (human) (UniProt Q99755)
NEK3 (human) = NEK3 (human) (UniProt P51956)
MAPK10 (human) = MAPK10 (human) (UniProt P53779)
YSK4 (human) = YSK4 (human) (UniProt Q56UN5)
LCK (human) = LCK (human) (UniProt P06239)
DYRK2 (human) = DYRK2 (human) (UniProt Q92630)
CSNK2A2 (human) = CSNK2A2 (human) (UniProt P19784)
PRKG2 (human) = PRKG2 (human) (UniProt Q13237)
ULK3 (human) = ULK3 (human) (UniProt Q6PHR2)
IGF1R (human) = IGF1R (human) (UniProt P08069)
MAPK9 (human) = MAPK9 (human) (UniProt P45984)
STK3 (human) = STK3 (human) (UniProt Q13188)
MAPK12 (human) = MAPK12 (human) (UniProt P53778)
SIK1 (human) = SIK1 (human) (UniProt P57059)
MAPKAPK2 (human) = MAPKAPK2 (human) (UniProt P49137)
MAP4K1 (human) = MAP4K1 (human) (UniProt Q92918)
TNIK (human) = TNIK (human) (UniProt Q9UKE5)
SRC (human) = SRC (human) (UniProt P12931)
TAOK2 (human) = TAOK2 (human) (UniProt Q9UL54)
NLK (human) = NLK (human) (UniProt Q9UBE8)
DAPK1 (human) = DAPK1 (human) (UniProt P53355)
AURKB (human) = AURKB (human) (UniProt Q96GD4)
LATS2 (human) = LATS2 (human) (UniProt Q9NRM7)
NEK11 (human) = NEK11 (human) (UniProt Q8NG66)
EPHB4 (human) = EPHB4 (human) (UniProt P54760)
BLK (human) = BLK (human) (UniProt P51451)
EIF2AK1 (human) = EIF2AK1 (human) (UniProt Q9BQI3)
CHEK1 (human) = CHEK1 (human) (UniProt O14757)
MYO3A (human) = MYO3A (human) (UniProt Q8NEV4)
TEK (human) = TEK (human) (UniProt Q02763)
DDR2 (human) = DDR2 (human) (UniProt Q16832)
CDK5 (human) = CDK5 (human) (UniProt Q00535)
TAOK3 (human) = TAOK3 (human) (UniProt Q9H2K8)
CSNK1G1 (human) = CSNK1G1 (human) (UniProt Q9HCP0)
AURKA (human) = AURKA (human) (UniProt O14965)
STK38L (human) = STK38L (human) (UniProt Q9Y2H1)
MST4 (human) = MST4 (human) (UniProt Q9P289)
RAF1 (human) = RAF1 (human) (UniProt P04049)
HUNK (human) = HUNK (human) (UniProt P57058)
HUNK (human), sequence (P57058 whole entry, looked up): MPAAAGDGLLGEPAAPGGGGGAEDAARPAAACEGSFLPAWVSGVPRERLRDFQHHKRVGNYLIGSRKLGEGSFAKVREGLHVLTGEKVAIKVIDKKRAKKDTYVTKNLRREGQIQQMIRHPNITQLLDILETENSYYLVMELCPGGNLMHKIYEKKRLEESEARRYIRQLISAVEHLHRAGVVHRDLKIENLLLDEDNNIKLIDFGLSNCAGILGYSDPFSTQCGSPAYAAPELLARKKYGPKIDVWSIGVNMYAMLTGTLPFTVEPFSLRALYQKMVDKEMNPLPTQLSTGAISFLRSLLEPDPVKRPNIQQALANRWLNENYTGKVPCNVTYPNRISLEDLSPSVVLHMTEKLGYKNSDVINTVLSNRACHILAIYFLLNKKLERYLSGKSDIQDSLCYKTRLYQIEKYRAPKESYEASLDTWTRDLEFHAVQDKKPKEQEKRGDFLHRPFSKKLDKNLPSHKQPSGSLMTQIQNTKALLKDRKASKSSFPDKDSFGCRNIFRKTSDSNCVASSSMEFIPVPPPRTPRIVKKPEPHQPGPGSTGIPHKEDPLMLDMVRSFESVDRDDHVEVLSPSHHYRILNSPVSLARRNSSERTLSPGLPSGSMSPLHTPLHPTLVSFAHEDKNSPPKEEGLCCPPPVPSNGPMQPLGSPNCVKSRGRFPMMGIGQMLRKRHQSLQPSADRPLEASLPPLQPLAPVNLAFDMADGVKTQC

NEK3 (human), sequence (P51956 whole entry, looked up): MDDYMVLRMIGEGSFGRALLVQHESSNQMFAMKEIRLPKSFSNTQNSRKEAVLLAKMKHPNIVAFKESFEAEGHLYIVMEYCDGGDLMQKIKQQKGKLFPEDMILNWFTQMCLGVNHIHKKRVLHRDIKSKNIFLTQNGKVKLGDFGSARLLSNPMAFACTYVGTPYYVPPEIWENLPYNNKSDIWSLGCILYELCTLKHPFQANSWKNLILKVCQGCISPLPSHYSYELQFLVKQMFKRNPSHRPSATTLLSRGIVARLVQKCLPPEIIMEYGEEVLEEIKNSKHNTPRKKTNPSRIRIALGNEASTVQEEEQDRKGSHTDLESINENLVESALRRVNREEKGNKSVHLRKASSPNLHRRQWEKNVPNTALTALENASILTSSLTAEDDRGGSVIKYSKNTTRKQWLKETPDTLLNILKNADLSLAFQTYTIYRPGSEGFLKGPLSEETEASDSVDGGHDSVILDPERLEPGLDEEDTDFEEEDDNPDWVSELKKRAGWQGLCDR
TNIK (human), sequence (Q9UKE5 whole entry, looked up): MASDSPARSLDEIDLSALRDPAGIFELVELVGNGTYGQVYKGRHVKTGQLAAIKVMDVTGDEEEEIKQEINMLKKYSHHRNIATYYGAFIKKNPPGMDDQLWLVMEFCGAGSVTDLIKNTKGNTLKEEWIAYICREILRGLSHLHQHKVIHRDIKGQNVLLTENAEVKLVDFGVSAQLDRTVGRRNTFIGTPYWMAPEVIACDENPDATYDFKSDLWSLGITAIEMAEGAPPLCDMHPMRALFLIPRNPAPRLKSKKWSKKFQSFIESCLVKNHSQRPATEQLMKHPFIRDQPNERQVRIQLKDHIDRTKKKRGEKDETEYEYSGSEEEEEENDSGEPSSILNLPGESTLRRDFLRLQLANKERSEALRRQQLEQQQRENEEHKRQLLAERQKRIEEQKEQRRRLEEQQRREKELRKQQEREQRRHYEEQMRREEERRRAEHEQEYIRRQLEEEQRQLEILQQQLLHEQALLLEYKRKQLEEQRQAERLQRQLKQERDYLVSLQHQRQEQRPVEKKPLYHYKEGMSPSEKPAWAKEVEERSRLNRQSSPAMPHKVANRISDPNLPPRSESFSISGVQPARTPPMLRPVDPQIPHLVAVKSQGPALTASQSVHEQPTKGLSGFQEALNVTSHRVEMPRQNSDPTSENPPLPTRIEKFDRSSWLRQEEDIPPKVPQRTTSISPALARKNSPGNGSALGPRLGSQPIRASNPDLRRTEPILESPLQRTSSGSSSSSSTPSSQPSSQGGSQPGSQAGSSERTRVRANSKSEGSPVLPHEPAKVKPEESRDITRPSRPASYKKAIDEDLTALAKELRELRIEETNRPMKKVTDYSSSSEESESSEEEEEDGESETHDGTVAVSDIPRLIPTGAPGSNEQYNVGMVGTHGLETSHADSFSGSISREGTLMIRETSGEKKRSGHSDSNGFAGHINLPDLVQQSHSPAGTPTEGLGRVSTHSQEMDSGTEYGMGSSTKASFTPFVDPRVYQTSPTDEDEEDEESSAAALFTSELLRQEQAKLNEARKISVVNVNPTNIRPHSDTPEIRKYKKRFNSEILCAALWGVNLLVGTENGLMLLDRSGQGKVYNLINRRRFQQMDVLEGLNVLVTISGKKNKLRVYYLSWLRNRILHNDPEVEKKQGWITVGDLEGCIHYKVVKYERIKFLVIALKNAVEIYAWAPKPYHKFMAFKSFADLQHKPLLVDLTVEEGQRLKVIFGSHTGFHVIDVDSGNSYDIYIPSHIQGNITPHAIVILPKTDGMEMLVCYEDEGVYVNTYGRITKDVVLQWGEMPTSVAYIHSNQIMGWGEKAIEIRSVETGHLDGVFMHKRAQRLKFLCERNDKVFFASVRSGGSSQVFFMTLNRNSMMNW
MAPKAPK2 (human), sequence (P49137 whole entry, looked up): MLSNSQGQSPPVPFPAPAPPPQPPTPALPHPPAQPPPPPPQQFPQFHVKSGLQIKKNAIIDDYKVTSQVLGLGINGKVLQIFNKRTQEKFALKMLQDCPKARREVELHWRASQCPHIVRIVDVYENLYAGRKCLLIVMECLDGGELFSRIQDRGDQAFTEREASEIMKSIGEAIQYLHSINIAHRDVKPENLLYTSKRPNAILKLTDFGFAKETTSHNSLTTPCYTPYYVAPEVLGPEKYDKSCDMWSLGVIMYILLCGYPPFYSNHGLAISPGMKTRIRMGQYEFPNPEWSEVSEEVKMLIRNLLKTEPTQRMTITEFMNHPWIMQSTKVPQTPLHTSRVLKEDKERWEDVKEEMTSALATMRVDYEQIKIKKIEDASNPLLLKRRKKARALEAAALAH
MYO3A (human), sequence (Q8NEV4 whole entry, looked up): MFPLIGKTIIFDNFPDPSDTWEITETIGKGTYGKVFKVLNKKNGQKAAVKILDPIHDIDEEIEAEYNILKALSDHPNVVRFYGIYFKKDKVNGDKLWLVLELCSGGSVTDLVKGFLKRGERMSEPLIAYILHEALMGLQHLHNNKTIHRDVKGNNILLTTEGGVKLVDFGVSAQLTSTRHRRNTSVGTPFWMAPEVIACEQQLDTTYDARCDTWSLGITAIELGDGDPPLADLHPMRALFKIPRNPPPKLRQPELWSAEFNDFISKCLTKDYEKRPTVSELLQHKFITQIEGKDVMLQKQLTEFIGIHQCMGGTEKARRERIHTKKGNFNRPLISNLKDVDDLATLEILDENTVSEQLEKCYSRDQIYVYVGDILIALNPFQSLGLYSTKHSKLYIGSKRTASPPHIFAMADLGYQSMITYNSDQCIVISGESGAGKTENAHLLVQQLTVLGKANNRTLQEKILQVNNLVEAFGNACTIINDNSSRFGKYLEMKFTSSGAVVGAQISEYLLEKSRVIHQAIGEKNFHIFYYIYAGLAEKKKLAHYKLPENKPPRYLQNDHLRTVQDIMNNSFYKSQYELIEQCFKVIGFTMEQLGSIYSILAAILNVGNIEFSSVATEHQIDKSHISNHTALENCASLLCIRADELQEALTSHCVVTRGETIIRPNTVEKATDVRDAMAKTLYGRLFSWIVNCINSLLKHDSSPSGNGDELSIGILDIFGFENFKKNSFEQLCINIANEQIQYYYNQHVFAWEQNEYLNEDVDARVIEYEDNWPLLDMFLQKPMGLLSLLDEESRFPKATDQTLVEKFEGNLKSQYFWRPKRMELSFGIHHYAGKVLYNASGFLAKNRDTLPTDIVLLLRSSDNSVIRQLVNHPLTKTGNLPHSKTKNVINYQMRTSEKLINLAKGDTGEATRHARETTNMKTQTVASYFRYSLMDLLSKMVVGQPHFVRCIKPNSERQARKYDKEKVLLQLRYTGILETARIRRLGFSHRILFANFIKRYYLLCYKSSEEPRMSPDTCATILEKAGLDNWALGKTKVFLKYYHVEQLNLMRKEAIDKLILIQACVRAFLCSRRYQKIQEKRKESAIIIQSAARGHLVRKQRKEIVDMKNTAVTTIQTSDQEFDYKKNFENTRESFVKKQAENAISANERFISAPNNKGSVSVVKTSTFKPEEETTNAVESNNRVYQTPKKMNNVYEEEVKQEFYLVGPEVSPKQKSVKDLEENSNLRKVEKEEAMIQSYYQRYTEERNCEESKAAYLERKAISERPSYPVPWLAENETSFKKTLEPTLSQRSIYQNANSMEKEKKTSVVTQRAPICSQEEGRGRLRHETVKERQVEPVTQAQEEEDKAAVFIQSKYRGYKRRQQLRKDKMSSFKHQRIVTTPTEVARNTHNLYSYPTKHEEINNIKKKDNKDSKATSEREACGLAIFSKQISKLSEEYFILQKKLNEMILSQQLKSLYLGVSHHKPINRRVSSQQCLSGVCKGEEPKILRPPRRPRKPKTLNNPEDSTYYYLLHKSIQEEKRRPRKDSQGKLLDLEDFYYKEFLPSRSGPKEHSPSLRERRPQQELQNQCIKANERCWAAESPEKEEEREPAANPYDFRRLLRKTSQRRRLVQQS
MST4 (human), sequence (Q9P289 whole entry, looked up): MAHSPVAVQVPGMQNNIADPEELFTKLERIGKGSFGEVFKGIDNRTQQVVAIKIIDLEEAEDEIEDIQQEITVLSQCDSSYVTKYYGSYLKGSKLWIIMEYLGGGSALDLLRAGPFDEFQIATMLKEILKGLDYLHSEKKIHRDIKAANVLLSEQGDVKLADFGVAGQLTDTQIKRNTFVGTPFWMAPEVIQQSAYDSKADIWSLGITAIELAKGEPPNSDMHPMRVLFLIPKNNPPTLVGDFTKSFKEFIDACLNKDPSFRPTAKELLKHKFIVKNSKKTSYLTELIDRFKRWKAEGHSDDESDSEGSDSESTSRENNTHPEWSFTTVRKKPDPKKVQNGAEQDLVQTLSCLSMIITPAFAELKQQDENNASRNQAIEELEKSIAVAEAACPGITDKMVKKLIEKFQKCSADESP

Which kinase still bound, per cent of control (BRSK2 (human)) does the source give for `CCN1CCN(Cc2ccc(NC(=O)c3ccc(C)c(/C=C/c4cnc5[nH]ccc5c4OC)c3)cc2C(F)(F)F)CC1` here?
Its kinase still bound, per cent of control is 100%.

What about the kinase still bound, per cent of control (INSRR (human)) of the same compound?
Its kinase still bound, per cent of control is 100%.

What about the kinase still bound, per cent of control (PIP5K1A (human)) of the same compound?
The kinase still bound, per cent of control was 2.6%.

What about the kinase still bound, per cent of control (NEK3 (human)) of the same compound?
The kinase still bound, per cent of control was 77%.

What about the kinase still bound, per cent of control (MAPK10 (human)) of the same compound?
Its kinase still bound, per cent of control is 15%.

What about the kinase still bound, per cent of control (YSK4 (human)) of the same compound?
Its kinase still bound, per cent of control is 0.2%.

And the kinase still bound, per cent of control (LCK (human))?
The kinase still bound, per cent of control was 0.15%.

And the kinase still bound, per cent of control (DYRK2 (human))?
Its kinase still bound, per cent of control is 78%.

And the kinase still bound, per cent of control (CSNK2A2 (human))?
The kinase still bound, per cent of control was 95%.

What about the kinase still bound, per cent of control (PRKG2 (human)) of the same compound?
The kinase still bound, per cent of control was 91%.

What about the kinase still bound, per cent of control (ULK3 (human)) of the same compound?
Its kinase still bound, per cent of control is 1.5%.

What about the kinase still bound, per cent of control (IGF1R (human)) of the same compound?
The kinase still bound, per cent of control was 100%.

What about the kinase still bound, per cent of control (MAPK9 (human)) of the same compound?
Its kinase still bound, per cent of control is 0.1%.

And the kinase still bound, per cent of control (STK3 (human))?
Its kinase still bound, per cent of control is 5.2%.

And the kinase still bound, per cent of control (MAPK12 (human))?
The kinase still bound, per cent of control was 40%.

What about the kinase still bound, per cent of control (SIK1 (human)) of the same compound?
Its kinase still bound, per cent of control is 0.9%.

What about the kinase still bound, per cent of control (MAPKAPK2 (human)) of the same compound?
Its kinase still bound, per cent of control is 100%.

What about the kinase still bound, per cent of control (MAP4K1 (human)) of the same compound?
The kinase still bound, per cent of control was 0%.

And the kinase still bound, per cent of control (TNIK (human))?
The kinase still bound, per cent of control was 3.2%.

What about the kinase still bound, per cent of control (SRC (human)) of the same compound?
The kinase still bound, per cent of control was 0.15%.

What about the kinase still bound, per cent of control (TAOK2 (human)) of the same compound?
Its kinase still bound, per cent of control is 0.5%.

What about the kinase still bound, per cent of control (NLK (human)) of the same compound?
Its kinase still bound, per cent of control is 17%.

What about the kinase still bound, per cent of control (DAPK1 (human)) of the same compound?
Its kinase still bound, per cent of control is 100%.

And the kinase still bound, per cent of control (AURKB (human))?
The kinase still bound, per cent of control was 16%.

And the kinase still bound, per cent of control (LATS2 (human))?
Its kinase still bound, per cent of control is 79%.

What about the kinase still bound, per cent of control (NEK11 (human)) of the same compound?
The kinase still bound, per cent of control was 32%.

What about the kinase still bound, per cent of control (EPHB4 (human)) of the same compound?
Its kinase still bound, per cent of control is 2.7%.

And the kinase still bound, per cent of control (BLK (human))?
Its kinase still bound, per cent of control is 0.15%.

What about the kinase still bound, per cent of control (EIF2AK1 (human)) of the same compound?
Its kinase still bound, per cent of control is 78%.

And the kinase still bound, per cent of control (CHEK1 (human))?
The kinase still bound, per cent of control was 28%.

What about the kinase still bound, per cent of control (MYO3A (human)) of the same compound?
The kinase still bound, per cent of control was 28%.

And the kinase still bound, per cent of control (TEK (human))?
The kinase still bound, per cent of control was 0.1%.

And the kinase still bound, per cent of control (DDR2 (human))?
The kinase still bound, per cent of control was 9%.

What about the kinase still bound, per cent of control (CDK5 (human)) of the same compound?
The kinase still bound, per cent of control was 100%.

And the kinase still bound, per cent of control (TAOK3 (human))?
Its kinase still bound, per cent of control is 0%.

And the kinase still bound, per cent of control (CSNK1G1 (human))?
The kinase still bound, per cent of control was 98%.

What about the kinase still bound, per cent of control (AURKA (human)) of the same compound?
Its kinase still bound, per cent of control is 97%.

What about the kinase still bound, per cent of control (STK38L (human)) of the same compound?
Its kinase still bound, per cent of control is 35%.

And the kinase still bound, per cent of control (MST4 (human))?
Its kinase still bound, per cent of control is 18%.

What about the kinase still bound, per cent of control (RAF1 (human)) of the same compound?
The kinase still bound, per cent of control was 0.9%.

What about the kinase still bound, per cent of control (HUNK (human)) of the same compound?
The kinase still bound, per cent of control was 18%.

Which results are given for `COc1cc2ncnc(Nc3cccc(Cl)c3)c2cc1OC`?
kinase still bound, per cent of control (BRSK2 (human)): 45%; kinase still bound, per cent of control (INSRR (human)): 100%; kinase still bound, per cent of control (PIP5K1A (human)): 93%; kinase still bound, per cent of control (NEK3 (human)): 78%; kinase still bound, per cent of control (MAPK10 (human)): 9.8%; kinase still bound, per cent of control (YSK4 (human)): 3.2%; kinase still bound, per cent of control (LCK (human)): 5.4%; kinase still bound, per cent of control (DYRK2 (human)): 27%; kinase still bound, per cent of control (CSNK2A2 (human)): 16%; kinase still bound, per cent of control (PRKG2 (human)): 82%; kinase still bound, per cent of control (ULK3 (human)): 24%; kinase still bound, per cent of control (IGF1R (human)): 100%; kinase still bound, per cent of control (MAPK9 (human)): 18%; kinase still bound, per cent of control (STK3 (human)): 91%; kinase still bound, per cent of control (MAPK12 (human)): 100%; kinase still bound, per cent of control (SIK1 (human)): 100%; kinase still bound, per cent of control (MAPKAPK2 (human)): 100%; kinase still bound, per cent of control (MAP4K1 (human)): 93%; kinase still bound, per cent of control (TNIK (human)): 26%; kinase still bound, per cent of control (SRC (human)): 9.9%; kinase still bound, per cent of control (TAOK2 (human)): 76%; kinase still bound, per cent of control (NLK (human)): 43%; kinase still bound, per cent of control (DAPK1 (human)): 53%; kinase still bound, per cent of control (AURKB (human)): 40%; kinase still bound, per cent of control (LATS2 (human)): 40%; kinase still bound, per cent of control (NEK11 (human)): 99%; kinase still bound, per cent of control (EPHB4 (human)): 38%; kinase still bound, per cent of control (BLK (human)): 7.1%; kinase still bound, per cent of control (EIF2AK1 (human)): 65%; kinase still bound, per cent of control (CHEK1 (human)): 100%; kinase still bound, per cent of control (MYO3A (human)): 83%; kinase still bound, per cent of control (TEK (human)): 97%; kinase still bound, per cent of control (DDR2 (human)): 42%; kinase still bound, per cent of control (CDK5 (human)): 100%; kinase still bound, per cent of control (TAOK3 (human)): 78%; kinase still bound, per cent of control (CSNK1G1 (human)): 100%; kinase still bound, per cent of control (AURKA (human)): 43%; kinase still bound, per cent of control (STK38L (human)): 87%; kinase still bound, per cent of control (MST4 (human)): 84%; kinase still bound, per cent of control (RAF1 (human)): 84%; kinase still bound, per cent of control (HUNK (human)): 69%

Which results are given for `N#Cc1cc(-c2ccnc(Nc3ccc(-n4cnc(-c5cccnc5)n4)cc3)n2)cc(N2CCOCC2)c1`?
kinase still bound, per cent of control (BRSK2 (human)): 98%; kinase still bound, per cent of control (INSRR (human)): 68%; kinase still bound, per cent of control (PIP5K1A (human)): 17%; kinase still bound, per cent of control (NEK3 (human)): 0.75%; kinase still bound, per cent of control (MAPK10 (human)): 0.15%; kinase still bound, per cent of control (YSK4 (human)): 0.25%; kinase still bound, per cent of control (LCK (human)): 48%; kinase still bound, per cent of control (DYRK2 (human)): 39%; kinase still bound, per cent of control (CSNK2A2 (human)): 11%; kinase still bound, per cent of control (PRKG2 (human)): 74%; kinase still bound, per cent of control (ULK3 (human)): 6%; kinase still bound, per cent of control (IGF1R (human)): 51%; kinase still bound, per cent of control (MAPK9 (human)): 0.1%; kinase still bound, per cent of control (STK3 (human)): 100%; kinase still bound, per cent of control (MAPK12 (human)): 80%; kinase still bound, per cent of control (SIK1 (human)): 73%; kinase still bound, per cent of control (MAPKAPK2 (human)): 100%; kinase still bound, per cent of control (MAP4K1 (human)): 26%; kinase still bound, per cent of control (TNIK (human)): 26%; kinase still bound, per cent of control (SRC (human)): 38%; kinase still bound, per cent of control (TAOK2 (human)): 37%; kinase still bound, per cent of control (NLK (human)): 76%; kinase still bound, per cent of control (DAPK1 (human)): 60%; kinase still bound, per cent of control (AURKB (human)): 57%; kinase still bound, per cent of control (LATS2 (human)): 62%; kinase still bound, per cent of control (NEK11 (human)): 100%; kinase still bound, per cent of control (EPHB4 (human)): 70%; kinase still bound, per cent of control (BLK (human)): 86%; kinase still bound, per cent of control (EIF2AK1 (human)): 100%; kinase still bound, per cent of control (CHEK1 (human)): 100%; kinase still bound, per cent of control (MYO3A (human)): 69%; kinase still bound, per cent of control (TEK (human)): 67%; kinase still bound, per cent of control (DDR2 (human)): 100%; kinase still bound, per cent of control (CDK5 (human)): 79%; kinase still bound, per cent of control (TAOK3 (human)): 28%; kinase still bound, per cent of control (CSNK1G1 (human)): 92%; kinase still bound, per cent of control (AURKA (human)): 93%; kinase still bound, per cent of control (STK38L (human)): 100%; kinase still bound, per cent of control (MST4 (human)): 62%; kinase still bound, per cent of control (RAF1 (human)): 91%; kinase still bound, per cent of control (HUNK (human)): 42%

From the kinase profiling compilation of Christmann-Franck et al. (2016)
